Data from US20040132817A1, “Use of an histone deacetylase inhibitor for the treatment of diseases associated with an hpv infection” (priority 2001, published 2004).

Columns and labels:
Type in all cases: cell-based, human
cdk6 = test: Western blot of cdk6 in HeLa cells; details: 6 mM sodium butyrate, 16 hours
Description: 50 μg of protein were separated on 12% SDS-PAGE minigels. After electrotransfer, the filters were incubated with antibodies against cyclin D1, cyclin E, cyclin A or cdk2, cdk4 or cdk6 specific antibodies. Equal protein loading was confirmed by reincubating the filters with a monoclonal actin antibody.
(§1) Cellular extracts were separated in 8-12% SDS PAGE gels and electrotransferred as described elsewhere (Finzer et al., Oncogene 19 (2000), 3235-3244; Soto et al., Oncogene 18 (1999), 3187-3198). The following antibodies were used: cyclin E (HE 12), cyclin D 1 (HD 11), cdk2 (M2), (D-12; Santa Cruz Biotechnology, Inc., Santa Cruz, USA), cdk4 (C-22), cdk6 (C-21), p27^KIP1 (C-19), (K25020), p45^SKP2 (N-19), HPV18-E7 (N-19) and E2F-1 (KH95) (Santa Cruz Biotechnology, Inc. Santa Cruz, USA), p21^CIP1 (C24420; Transduction Laboratories, Lexington, USA), pRB (NCL-RB; Novocastra, UK), p16^INK4 (15126E, Pharmingen, San Diego, USA) and HPV 16 E7 (ZYMED Lab. Inc., San Francisco, USA). Cyclin A was kindly provided by M. Pagano (Pagano et al., EMBO J. 11 (1992), 961-971). Equal protein transfer and loading was routinely checked by incubating the filters with a monoclonal actin antibody (ICN Biomedicals, Ohio, USA).

pRb = test: Western blot of pRb in HPV16 E6-, E7-, E6/E7-immortalized keratinocytes; details: 6 mM sodium butyrate, 16 hours
Description: Western blot analysis of cellular extracts obtained from E6-, E7-, and E6/E7-Immortalized cells which were separated in 8% (pRb) and 12% SDS-PAGE gels. After electrotransfer, the filters were incubated with pRb, E2F-1, cyclin E and actin antibodies. […] Due to quantitative differences of pRb and cyclin E levels in E7- and E6/E7-positive cells, the filters were exposed for different times.
HPV18-positive cervical Carcinoma cells (HeLa) were maintained in Dulbecco's modified Eagle's medium (DMEM), supplemented with 10% fetal calf serum (Gibco BRL, Rockville, USA), 1% penicillin and streptomycin (Sigma, Deisenhofen, Deutschland). Primary human keratinocytes, immortalized by E6-, E7- and E6/E7-open reading frames carrying amphotroptic retroviruses were cultivated in “Keratinocyte Medium Kit” (Sigma). Human foreskin keratinocytes transformed with HPV-16 E6/E7 either under the control of a human β-actin promoter (,1321″) or under the control of the authentic upstream regulatory region HPV (,1637″) were a kind gift of Dr. R. Schlegel (Georgetown University, Washington, USA) (Münger et al., J. Virol. 63 (1989), 4414-4423; Villa & Schlegel, Virology 181 (1991), 374-377). Cells were grown in 3 parts of keratinocyte-serum free medium (K-SFM, GIBCO, BRL) and 1 part of DMEM containing 10% fetal calf serum (GIBCO, BRL) and 0.75% gentamycin, 0.25% penicillin/streptomycin, respectively
as §1, with “Cyclin A was kindly provided by M. Pagano (Pagano et al., EMBO J. 11 (1992), 961-971). Equal protein transfer and loading was routinely checked by incubating the filters with a monoclonal actin antibody (ICN Biomedicals, Ohio, USA).” left out

p21^CIP1 mRNA = test: Northern blot of p21^CIP1 in "1321" keratinocytes; details: "1321" cells, six hours following NaB addition
Description: Keratinocytes immortalized with HPV16 E6/E7 either under control of (A) the homologues viral upstream regulatory region (,1637″) or (B) of the β-actin promoter (,1321″) were incubated with NaB for various periods of time. 5 μg of RNA was separated in 1% agarose gels. The filters were hybridized with probes specific for HPV16, p21^CIP1 (=p21), β-actin and GAPDH. The positions of the 28S and 18S ribosomal RNA are indicated. (Contr.): untreated cells.
Total cellular RNA was extracted according to the guanidinium-thiocyanate procedure (Chomczynski and Sacchi, Anal. Biochem. 162 (1987), 156-159). Approximately 5 μg RNA were separated on 1% agarose gels in the presence of ethidium bromide under non-denaturing conditions and transferred to GeneScreen Plus membranes (DuPont, Bad Homburg, Deutschland). The filters were hybridized under stringent conditions with specific probes, which were labeled with ^32p-dCTP by random priming (Feinberg and Vogelstein, Anal. Biochem. 137 (1984), 266-267).

## CCCC(=O)[O-].[Na+] [sodium butyrate]
cdk6
  cdk6 expression: neither the cyclin-dependent kinase 2 (cdk2) nor cdk4 or cdk6 revealed any significant influence on their expression rates
pRb; HPV16 E6-immortalized keratinocytes
  pRb state in E6-containing keratinocytes: hypophosphorylated
pRb; HPV16 E6/E7-immortalized keratinocytes
  pRb level in E6/E7-immortalized keratinocytes: again revealed pRb degradation
pRb; HPV16 E7-immortalized keratinocytes
  pRb level in E7-expressing keratinocytes: completely disappeared
p21^CIP1 mRNA
  p21CIP1 expression: augmented
